The values that follow come from ChEMBL document CHEMBL4417638, “Novel cyclic peptides and uses thereof” (2018).

Activity calls are given as the source filed them. No cut-off for these calls is given here. Numbered stars: 1 amine (or outer) side, 2 acyl side, 3 side chain; on linkers, the order of the positions; unused ones are H or OH. Square brackets hold non-standard residues; d marks the D form. Peptide text beside a SMILES is read from it. azaTyr = O=C(N(Cc1ccc(O)cc1)N[*:1])[*:2]

Assay [1] relates to RAW264.7. Put plainly: Inhibition of R-FSL-1-induced TNFalpha production in mouse RAW264.7 cells at 10 uM pre-incubated for 30 mins before R-FSL-1 stimulation for 4 hrs by ELISA. The format is functional, cell-based.
Assay [2] deals with RAW264.7. Put plainly: Inhibition of R-FSL-1-induced nitric oxide production in mouse RAW264.7 cells at 10 uM pre-incubated for 1 hr before R-FSL-1 stimulation by fluorescence based assay relative to control. The format is functional.
The subject of assay [3] is RAW264.7. Put plainly: Inhibition of R-FSL-1-induced CCL2 production in mouse RAW264.7 cells at 10 uM pre-incubated for 30 mins before R-FSL-1 stimulation for 4 hrs by ELISA. The format is functional, cell-based.
In assay [4] the test system is Mus musculus. In words: Anti-atherosclerotic activity in atherogenic diet fed apoE-/- mouse assessed as reduction in aortic lesions at 300 nmol/kg, sc dosed daily for 8 weeks from 12 weeks of age relative to control. In kind it is functional.
Assay [5] deals with Mus musculus. In words: Protection against photoreceptor degeneration in mouse model of intense blue light-induced dry age related macular degeneration assessed as improvement of retinal function by measuring increase in a-wave and b-wave amplitudes at 289 nmol/kg, sc starting one day after start of blue-light exposure for 7 consecutive days by electroretinography analysis. In kind it is functional, organism-based.

Assay [6] concerns Mus musculus. Put plainly: Protection against photoreceptor degeneration in mouse model of intense blue light-induced dry age related macular degeneration assessed as reduction in subretinal inflammation by measuring reduction in IL-1p-expressing immune cell infiltration in retina at 289 nmol/kg, sc starting one day after start of blue-light exposure for 7 consecutive days. In kind it is functional, organism-based.

Assay [7] relates to BMDM. Put plainly: Inhibition of R-FSL-1-induced TNFalpha production in C57BL/6 mouse BMDM at 10 pM to 1 uM pre-incubated for 30 mins before R-FSL-1 stimulation for 4 hrs by ELISA. The format is functional, cell-based.
In assay [8] the test system is Mus musculus. Put plainly: Protection against photoreceptor degeneration in mouse model of intense blue light-induced dry age related macular degeneration assessed as preservation of ONL thickness at 289 nmol/kg, sc starting one day after start of blue-light exposure for 7 consecutive days. The format is functional, organism-based.
For assay [9], the system named is BMDM. In words: Inhibition of R-FSL-1-induced IL-1beta production in C57BL/6 mouse BMDM at 10 pM to 1 uM pre-incubated for 30 mins before R-FSL-1 stimulation for 4 hrs by ELISA. In kind it is functional, cell-based.
Assay [10] deals with Platelet glycoprotein 4 (Rattus norvegicus, UniProt Q07969). Put plainly: Displacement of [125]-Tyr-Bpa-Ala-Hexarelin from CD36 in Sprague-Dawley rat heart membranes incubated for 60 mins. The format is cell membranes.
Chain of Platelet glycoprotein 4 (Q07969 whole entry): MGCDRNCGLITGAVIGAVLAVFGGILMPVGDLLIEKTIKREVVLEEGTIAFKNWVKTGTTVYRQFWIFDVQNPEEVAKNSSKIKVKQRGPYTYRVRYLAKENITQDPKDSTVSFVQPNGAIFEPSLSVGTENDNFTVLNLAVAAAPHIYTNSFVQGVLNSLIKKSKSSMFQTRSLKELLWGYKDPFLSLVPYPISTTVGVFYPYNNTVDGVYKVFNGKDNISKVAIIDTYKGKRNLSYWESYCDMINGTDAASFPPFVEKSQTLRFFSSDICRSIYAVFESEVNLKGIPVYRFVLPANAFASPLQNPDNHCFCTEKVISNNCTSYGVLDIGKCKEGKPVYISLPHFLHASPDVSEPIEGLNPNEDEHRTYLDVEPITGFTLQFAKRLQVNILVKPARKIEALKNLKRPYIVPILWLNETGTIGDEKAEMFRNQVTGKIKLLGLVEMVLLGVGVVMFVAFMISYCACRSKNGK

In the case of `C=CCN1CC#CCN(NC(=O)[C@@H](Cc2c[nH]c3ccccc23)NC(=O)[C@@H](N)Cc2cnc[nH]2)C(=O)N[C@@H](Cc2c[nH]c3ccccc23)C(=O)N[C@H](Cc2ccccc2)C(=O)N[C@H](C(N)=O)CCCC1`, the inhibition result in [1], in [2] and in assay [3] was “Active” in each case.
Take `C=CCN1CC#CCN(NC(=O)[C@H](C)N)C(=O)N[C@H](Cc2c[nH]c3ccccc23)C(=O)N[C@@H](C)C(=O)N[C@H](C(=O)N[C@H](Cc2ccccc2)C(=O)N[C@@H](CCCCN)C(N)=O)CCCC1`: in assay [2], the inhibition result was “Active”.
Still for that read-out and setting: the entry for `C=CCN1CC#CC[C@H](NC(=O)[C@H](C)N)C(=O)N[C@@H](C)C(=O)N[C@@H](Cc2c[nH]c3ccccc23)C(=O)N[C@H](Cc2ccccc2)C(=O)N[C@H](C(N)=O)CCCC1` is “Active”.
Regarding `C=CCN1CC#CCN(N)C(=O)N[C@H](Cc2c[nH]c3ccccc23)C(=O)N[C@@H](C)C(=O)N[C@@H](Cc2c[nH]c3ccccc23)C(=O)N[C@H](Cc2ccccc2)C(=O)N[C@H](C(N)=O)CCCC1`, the inhibition result in assay [1] and in [3] was “inactive” each time. The compound further came in with an inhibition at 10 µM in assay [2] of 80%. Further, in [4], the inhibition entry is “Active”.
Consider `C=CCN1CC#CCN(NC(C)=O)C(=O)N[C@H](Cc2c[nH]c3ccccc23)C(=O)N[C@@H](C)C(=O)N[C@@H](Cc2c[nH]c3ccccc23)C(=O)N[C@H](Cc2ccccc2)C(=O)N[C@H](C(N)=O)CCCC1`, for which the inhibition entry in assay [1], in [4] and in assay [3] was “Active” throughout. The compound also showed an inhibition at 10 µM in assay [2] of 80%.
On to `C=CCN1CC#CCN(NC(=O)[C@H](C)N)C(=O)N[C@@H](C)C(=O)N[C@@H](Cc2c[nH]c3ccccc23)C(=O)N[C@H](Cc2ccccc2)C(=O)N[C@H](C(N)=O)CCCC1`, for which the inhibition entry in assay [1], in assay [2] and in [3] was “Active” throughout.
`C=CCN1CC#CCN(NC(=O)[C@H](C)NC(C)=O)C(=O)N[C@H](Cc2c[nH]c3ccccc23)C(=O)N[C@@H](C)C(=O)N[C@@H](Cc2c[nH]c3ccccc23)C(=O)N[C@H](Cc2ccccc2)C(=O)N[C@H](C(N)=O)CCCC1`: the inhibition entry in assay [1], in assay [4] and in assay [3] was “Active” each time. The compound further had an inhibition at 10 µM in assay [2] of 80%.
For the compound `CN1CC#CCN(NC(=O)[C@@H](Cc2c[nH]c3ccccc23)NC(=O)[C@@H](N)Cc2cnc[nH]2)C(=O)N[C@@H](Cc2c[nH]c3ccccc23)C(=O)N[C@H](Cc2ccccc2)C(=O)N[C@H](C(N)=O)CCCC1`, the inhibition result in assay [1] and in [3] was “inactive” in each case.
As for `C=CCN1CC#CCN(NC(=O)[C@H](C)N)C(=O)N[C@H](Cc2c[nH]c3ccccc23)C(=O)N[C@@H](C)C(=O)N[C@@H](Cc2c[nH]c3ccccc23)C(=O)N[C@H](Cc2ccccc2)C(=O)N[C@H](C(N)=O)CCCC1`, the result in assay [5], in assay [6] and in [8] was Active. For the same compound, the inhibition entry in assay [1], in [2], in assay [7], in [3] and in assay [9] was “Active” in each case.
`C=CCN1CC#CC[C@H](NC(=O)[C@H](C)N)C(=O)N[C@H](Cc2c[nH]c3ccccc23)C(=O)N[C@@H](C)C(=O)N[C@@H](Cc2c[nH]c3ccccc23)C(=O)N[C@H](Cc2ccccc2)C(=O)N[C@H](C(N)=O)CCCC1`: the inhibition entry in [2] was “Active”.
For the compound `C=CCN1CC#CCN(NC(=O)CN)C(=O)N[C@H](Cc2c[nH]c3ccccc23)C(=O)N[C@@H](C)C(=O)N[C@@H](Cc2c[nH]c3ccccc23)C(=O)N[C@H](Cc2ccccc2)C(=O)N[C@H](C(N)=O)CCCC1`, the IC50 in assay [10] is 12.9 µM.
The compound `C[C@@H]1NC(=O)[C@@H](Cc2c[nH]c3ccccc23)NC(=O)N(NC(=O)CN)CC#CCN(CC2CC2)CCCC[C@@H](C(N)=O)NC(=O)[C@@H](Cc2ccccc2)NC(=O)[C@H](Cc2c[nH]c3ccccc23)NC1=O` displayed a half-inhibitory concentration (IC50) in assay [10] of 0.98 µM. For the same compound, in [2], the inhibition entry was “Active”.
For the compound `C=CCN1CC#CCN(NC(=O)[C@@H](C)N)C(=O)N[C@H](Cc2c[nH]c3ccccc23)C(=O)N[C@@H](C)C(=O)NN(Cc2ccc(OC)cc2)C(=O)N[C@H](Cc2ccccc2)C(=O)N[C@H](C(N)=O)CCCC1`, the inhibition entry in [2] is “Active”.
On to `C[C@H](NC(=O)[C@@H](Cc1c[nH]c2ccccc12)NC(=O)[C@@H](N)Cc1cnc[nH]1)C(=O)NN(Cc1ccc(O)cc1)C(=O)N[C@H](Cc1ccccc1)C(=O)N[C@@H](CCCCN)C(N)=O` (H-H[dW]A[azaTyr][dF]K-NH2), for which the inhibition entry in assay [1], in assay [4] and in assay [3] was “Active” throughout.
For the compound `CCCN1CC#CCN(NC(=O)CN)C(=O)N[C@H](Cc2c[nH]c3ccccc23)C(=O)N[C@@H](C)C(=O)N[C@@H](Cc2c[nH]c3ccccc23)C(=O)N[C@H](Cc2ccccc2)C(=O)N[C@H](C(N)=O)CCCC1`, the half-maximal inhibitory concentration (IC50) in [10] came to 1.49 µM. The inhibition entry in assay [2] was “Active”.
